Measurements: patent publication US20070072938A1, “DRONABINOL TREATMENT OF DELAYED CHEMOTHERAPY-INDUCED NAUSEA AND VOMITING” (priority 2005, published 2007)
Marks after values point to notes of the source that are not given here.

Experiments:
[1] = tested on: patients receiving moderately to highly emetogenic chemotherapy; assay: Other analyses: rescue antiemetic use and compliance with study medication; assay type: in vivo, human; details: for patients who required rescue medicine: Day 5; for Rescue antiemetics used (patients): whole study
Procedure: (§1) A kit of open-label antiemetics (metoclopramide 10 mg, prochlorperazine 5 mg, and prochlorperazine 25-mg suppository) was provided to the study participants for use on Days 1 through 8 as rescue medications to treat intolerable nausea and vomiting and/or retching after using the maximum dose of study medication at any dosing interval. Patients recorded the use of rescue medication and returned the unused portion of the kit.
For the primary efficacy parameter, a logistic regression model was used for the primary analysis and a Cochran-Mantel-Haenszel (“CMH”) test stratified by pooled center was performed as a supportive analysis. Continuous secondary efficacy parameters were analyzed for all pairwise comparisons using a 2-way analysis of variance (“ANOVA”) with treatment and pooled center as fixed factors. For data that was not normally distributed, data were ranked, and an ANOVA was performed on the ranked scores. Categorical secondary efficacy parameters were analyzed for all pairwise comparisons using the CMH test stratified by pooled center. No adjustment for multiple comparisons was performed for the secondary efficacy parameters. No interactions were examined for the secondary efficacy parameters. Compliance with study medication was defined as taking all doses of supplied medication and was measured throughout the trial.

[2] = tested on: patients receiving moderately to highly emetogenic chemotherapy; assay: Safety and tolerability: treatment-emergent adverse events (safety population)
Procedure: (§2) A randomized, double-blind, placebo-controlled, parallel-group study evaluating the antiemetic efficacy and tolerability of oral dronabinol alone, dronabinol in combination with ondansetron, ondansetron alone, and placebo in patients receiving moderate to high emetogenic chemotherapy was conducted. All patients received dexamethasone 20 mg and ondansetron 16 mg intravenously prechemotherapy. […] On Day 2, placebo or fixed doses of 10 mg dronabinol, 16 mg ondansetron, or dronabinol plus ondansetron were administered. On Days 3-5, patients received placebo, flexible doses of 10-20 mg dronabinol, 8-16 mg ondansetron, or dronabinol plus ondansetron. Rescue antiemetics were permitted after using the maximum dose of medication. The primary efficacy variable was total response (“TR”) to study medication (TR=nausea intensity<5 mm on a 100-mm visual analog scale, no vomiting/retching, no rescue antiemetic). Secondary efficacy parameters included nausea status and intensity, as well as episodes of vomiting/retching. […] TR and presence/absence of nausea were evaluated using the Fisher's Exact Test. Tolerability was assessed by physical examination and adverse events.
AEs and concomitant medications were also assessed.

[3] = tested on: patients receiving moderately to highly emetogenic chemotherapy; assay: ECOG (wellness) and McCorkle Symptom Distress Scale (QoL) assessment; assay type: in vivo, human
Procedure: The secondary efficacy analysis included patients who took rescue medication. However, analyses were conducted only on data collected before the use of any rescue medication. The secondary efficacy assessments were complete response, presence or absence of nausea, episodes of vomiting and/or retching, duration of nausea and vomiting and/or retching, intensity of nausea measured by VAS, ECOG (wellness), and QoL. Complete response for vomiting/retching was defined as no vomiting/retching, intensity of nausea of ≦30 mm on the VAS, and no use of rescue therapy. The presence or absence of nausea, episodes of vomiting and/or retching, and duration of nausea and vomiting and/or retching were assessed from daily patient telephone diary entries completed each morning to report the previous day. The patient was prompted through the Interactive Voice Response System to use the standard VAS to assess nausea intensity. The ECOG (wellness) assessment was clinician administered at screening and again on Day 6, Day 7, or Day 8 (or early termination). The possible range of the ECOG assessment was 0 to 4, where 0 was normal activity with no limitations and 4 was very sick, rarely out of bed.
The McCorkle Symptom Distress Scale (QoL assessment) evaluation was conducted on Day 1 (postchemotherapy) and again on Day 6, Day 7, or Day 8 (or early termination). […]

[4] = tested on: patients receiving moderately to highly emetogenic chemotherapy; assay: Randomized, double-blind, placebo-controlled study: antiemetic efficacy in delayed CINV (Days 2-5); assay type: in vivo, human; details: for Absence of nausea / Absence of nausea (frequency/n) / Mean vomiting/retching / Total response (frequency/n) / Mean nausea intensity: Days 2-5; for Mean nausea intensity: 100-mm VAS; for Total response: Days 2-5 LOCF end point, TR = nausea <5 mm VAS, no vomiting/retching, no rescue; for Complete Response: No / Complete Response: Yes: LOCF End Point (Days 2-5)
Procedure: as §2
All efficacy analyses were based on the ITT population.
This was a randomized, double-blind, placebo-controlled, parallel-group, 5-day study to evaluate the antiemetic efficacy and safety of oral dronabinol (sole under the trade name, Marinol®) alone, and in combination with ondansetron (sole under the trade name, Zofran®), versus ondansetron alone in patients receiving moderately to highly emetogenic chemotherapy. The investigator obtained written approval from the Institutional Review Board, and the study was conducted in accordance with the Declaration of Helsinki.
Patients who entered the study were to undergo cancer chemotherapy with moderately to highly emetogenic agents on Day 1 when they were randomized into 1 of 4 treatment groups: dronabinol alone (Group Dronabinol), ondansetron alone (Group Ondansetron), combination therapy with dronabinol and ondansetron (Group Dronabinol/Ondansetron), or placebo (Group Placebo). All patients received a standard prechemotherapy regimen of dexamethasone (20 mg) and ondansetron (16 mg). […] Placebo patients received matching placebo prechemotherapy and postchemotherapy on Day 1.
as §1
Each morning, patients recorded the number of vomiting and/or retching episodes in the previous day. In addition, the patient recorded the daily presence or absence of nausea and its duration.
The primary efficacy measure was the incidence of total response to treatment following administration of moderately to highly emetogenic chemotherapeutic agents. Total response was defined as no vomiting and/or retching, intensity of nausea <5 mm on a 100-mm Visual Analog Scale (VAS scale 0-100 mm; 0 mm=no nausea; 100 mm=intractable nausea), and no use of rescue medication.
The secondary efficacy analysis included patients who took rescue medication. However, analyses were conducted only on data collected before the use of any rescue medication. The secondary efficacy assessments were complete response, presence or absence of nausea, episodes of vomiting and/or retching, duration of nausea and vomiting and/or retching, intensity of nausea measured by VAS, ECOG (wellness), and QoL. Complete response for vomiting/retching was defined as no vomiting/retching, intensity of nausea of ≦30 mm on the VAS, and no use of rescue therapy.

CCCCCc1cc(O)c2c(c1)OC(C)(C)[C@@H]1CCC(C)=C[C@@H]21 [Dronabinol, delta-9-tetrahydrocannabinol]
patients who required rescue medicine [1]: 12%
Rescue antiemetics used (patients) [1]: 24%
Adverse event: Asthenia ([2]; Safety Population): 2 (12) n (%)
Adverse event: Chest pain ([2]; Safety Population): 1 (6) n (%)
Adverse event: Constipation ([2]; Safety Population): 1 (6) n (%)
Adverse event: Diarrhea ([2]; Safety Population): 4 (24) n (%)
Adverse event: Dizziness ([2]; Safety Population): 1 (6) n (%)
Adverse event: Fatigue ([2]; Safety Population): 2 (12) n (%)
Adverse event: Headache ([2]; Safety Population): 0 n (%)
Adverse event: Hyperglycemia ([2]; Safety Population): 0 n (%)
Adverse event: Insomnia ([2]; Safety Population): 0 n (%)
Patients who permanently discontinued study medication because of a TEAE ([2]; Safety Population): 1 (6) n (%)
Patients with at least 1 SAE ([2]; Safety Population): 2 (12) n (%)
Patients with at least 1 TEAE ([2]; Safety Population): 14 (82) n (%)
Patients with at least 1 TEAE leading to dose reduction ([2]; Safety Population): 0 n (%)
Patients with at least 1 severe TEAE ([2]; Safety Population): 2 (12) n (%)
incidence of CNS-related events ([2]; result in words): low and few CNS-related AEs
tolerability ([2]; result in words): well tolerated
McCorkle Symptom Distress Scale (QoL), mean change from baseline ([3]; Day 1 versus Day 6, 7 or 8, lower values = less distress): −2.0±4.2
ECOG (wellness) change after treatment ([3]; result in words): Shifts in ECOG from 1 to 0 (improvement)
Duration of nausea: 3-6 h ([4]; Day 2): 0 n (%)
Duration of nausea: 6-8 h ([4]; Day 2): 1 (8) n (%)
Duration of nausea: 8-10 h ([4]; Day 2): 0 n (%)
Duration of nausea: <3 h ([4]; Day 2): 1 (8) n (%)
Duration of nausea: >10 h ([4]; Day 2): 2 (15) n (%)
Duration of nausea: No nausea reported ([4]; Day 2): 9 (69) n (%)
Observed Duration of Vomiting/Retching (mean ± SD) ([4]; Day 2): 0.00 ± 0.00 h
Duration of nausea: 3-6 h ([4]; Day 3): 0 n (%)
Duration of nausea: 6-8 h ([4]; Day 3): 2 (17) n (%)
Duration of nausea: 8-10 h ([4]; Day 3): 0 n (%)
Duration of nausea: <3 h ([4]; Day 3): 2 (17) n (%)
Duration of nausea: >10 h ([4]; Day 3): 1 (8) n (%)
Duration of nausea: No nausea reported ([4]; Day 3): 7 (58) n (%)
Observed Duration of Vomiting/Retching (mean ± SD) ([4]; Day 3): 0.41 ± 1.36 h
Duration of nausea: 3-6 h ([4]; Day 4): 0 n (%)
Duration of nausea: 6-8 h ([4]; Day 4): 0 n (%)
Duration of nausea: 8-10 h ([4]; Day 4): 0 n (%)
Duration of nausea: <3 h ([4]; Day 4): 1 (11) n (%)
Duration of nausea: >10 h ([4]; Day 4): 0 n (%)
Duration of nausea: No nausea reported ([4]; Day 4): 8 (89) n (%)
Observed Duration of Vomiting/Retching (mean ± SD) ([4]; Day 4): 0.00 ± 0.01 h
Duration of nausea: 3-6 h ([4]; Day 5): 0 n (%)
Duration of nausea: 6-8 h ([4]; Day 5): 0 n (%)
Duration of nausea: 8-10 h ([4]; Day 5): 0 n (%)
Duration of nausea: <3 h ([4]; Day 5): 1 (13) n (%)
Duration of nausea: >10 h ([4]; Day 5): 0 n (%)
Duration of nausea: No nausea reported ([4]; Day 5): 7 (88) n (%)
Observed Duration of Vomiting/Retching (mean ± SD) ([4]; Day 5): 0.00 ± 0.00 h
Absence of nausea [4]: 71^† %
Absence of nausea (frequency/n) [4]: (10/14)
Mean vomiting/retching [4]: 0.2 episodes/day
Total response (frequency/n) [4]: (7/13)
Mean nausea intensity [4]: 10.1^† mm
Absence of nausea ([4]; listed as dronabinol): 71%
Total response [4]: 54%
Complete Response: No [4]: 5 (38) n (%)
Complete Response: Yes [4]: 8 (62) n (%)
antiemetic effect for delayed CINV ([4]; result in words): comparable with ondansetron

Cc1nccn1CC1CCc2c(c3ccccc3n2C)C1=O (stereo not drawn) [Ondansetron, ondansetron]
patients who required rescue medicine [1]: 25%
Rescue antiemetics used (patients) [1]: 31%
Adverse event: Asthenia ([2]; human, in vivo): 1 (6) n (%)
Adverse event: Chest pain ([2]; human, in vivo): 2 (13) n (%)
Adverse event: Constipation ([2]; human, in vivo): 2 (13) n (%)
Adverse event: Diarrhea ([2]; human, in vivo): 1 (6) n (%)
Adverse event: Dizziness ([2]; human, in vivo): 1 (6) n (%)
Adverse event: Fatigue ([2]; human, in vivo): 1 (6) n (%)
Adverse event: Headache ([2]; human, in vivo): 3 (19) n (%)
Adverse event: Hyperglycemia ([2]; human, in vivo): 2 (13) n (%)
Adverse event: Insomnia ([2]; human, in vivo): 2 (13) n (%)
Patients who permanently discontinued study medication because of a TEAE ([2]; human, in vivo): 2 (13) n (%)
Patients with at least 1 SAE ([2]; human, in vivo): 1 (6) n (%)
Patients with at least 1 TEAE ([2]; human, in vivo): 14 (88) n (%)
Patients with at least 1 TEAE leading to dose reduction ([2]; human, in vivo): 0 n (%)
Patients with at least 1 severe TEAE ([2]; human, in vivo): 1 (6) n (%)
Duration of nausea: 3-6 h ([4]; Day 2): 0 n (%)
Duration of nausea: 6-8 h ([4]; Day 2): 0 n (%)
Duration of nausea: 8-10 h ([4]; Day 2): 0 n (%)
Duration of nausea: <3 h ([4]; Day 2): 4 (33) n (%)
Duration of nausea: >10 h ([4]; Day 2): 1 (8) n (%)
Duration of nausea: No nausea reported ([4]; Day 2): 7 (58) n (%)
Observed Duration of Vomiting/Retching (mean ± SD) ([4]; Day 2): 2.00 ± 6.93 h
Duration of nausea: 3-6 h ([4]; Day 3): 0 n (%)
Duration of nausea: 6-8 h ([4]; Day 3): 1 (10) n (%)
Duration of nausea: 8-10 h ([4]; Day 3): 0 n (%)
Duration of nausea: <3 h ([4]; Day 3): 1 (10) n (%)
Duration of nausea: >10 h ([4]; Day 3): 0 n (%)
Duration of nausea: No nausea reported ([4]; Day 3): 8 (80) n (%)
Observed Duration of Vomiting/Retching (mean ± SD) ([4]; Day 3): 0.06 ± 0.17 h
Duration of nausea: 3-6 h ([4]; Day 4): 0 n (%)
Duration of nausea: 6-8 h ([4]; Day 4): 0 n (%)
Duration of nausea: 8-10 h ([4]; Day 4): 0 n (%)
Duration of nausea: <3 h ([4]; Day 4): 1 (13) n (%)
Duration of nausea: >10 h ([4]; Day 4): 0 n (%)
Duration of nausea: No nausea reported ([4]; Day 4): 7 (88) n (%)
Observed Duration of Vomiting/Retching (mean ± SD) ([4]; Day 4): 0.00 ± 0.00 h
Duration of nausea: 3-6 h ([4]; Day 5): 1 (14) n (%)
Duration of nausea: 6-8 h ([4]; Day 5): 0 n (%)
Duration of nausea: 8-10 h ([4]; Day 5): 0 n (%)
Duration of nausea: <3 h ([4]; Day 5): 0 n (%)
Duration of nausea: >10 h ([4]; Day 5): 0 n (%)
Duration of nausea: No nausea reported ([4]; Day 5): 6 (86) n (%)
Observed Duration of Vomiting/Retching (mean ± SD) ([4]; Day 5): 0.02 ± 0.06 h
Absence of nausea [4]: 64^† %
Absence of nausea (frequency/n) [4]: (9/14)
Mean vomiting/retching [4]: 1.3 episodes/day
Total response (frequency/n) [4]: (7/12)
Mean nausea intensity [4]: 24.0^† mm
Absence of nausea ([4]; listed as ondansetron): 64%
Total response [4]: 58%
Complete Response: No [4]: 5 (42) n (%)
Complete Response: Yes [4]: 7 (58)* n (%)
